Measurements from US20260226006A1, “INDOLE COMPOUND, PREPARATION METHOD THEREFOR AND USE THEREOF” (SUZHOU MERNA THERAPEUTICS CO. LTD, priority 2023, published 2026).

How the values were obtained:
[1] = test system: HaCat cells; experiment: m6A methylation level of human HaCat keratinocytes, EpiQuik m6A RNA methylation quantification kit (Example 20); assay type: cell-based; conditions: 50 nM drug alone; for fold induction at 0.05 µM: Homo sapiens, HaCat cells, 24 hours, read-out: m6A fold change relative to control group 1
Experimental: HaCat cells were cultured in a DMEM culture medium containing 10% fetal bovine serum, 100 U/mL penicillin, and 100 μg/mL streptomycin. Culture dishes were placed in an incubator containing 5% CO2 for culture at 37° C. for 24 hours. An equal volume of DMSO was added in control group 1, 50 nM sorafenib, capecitabine, docetaxel, and osimertinib were respectively added in control groups A, B, C, and D, and 400 nM test compounds or nicotinamide were respectively added in sample groups A1-17, B1-17, C1-17, and D1-17 after the addition of 50 nM corresponding compounds. The cells were continuously cultured for 24 hours, washed with PBS, and then collected by high-speed centrifugation. Total RNA was extracted using a Trizol reagent (Sigma Aldrich), and RNA m6A methylation of a sample was quantitatively detected using an EpiQuik m6A RNA methylation quantification kit. The concentrations of positive control samples for a standard curve were 0.01 ng/μl, 0.02 ng/μl, 0.05 ng/μl, 0.1 ng/μl, 0.2 ng/μl, and 0.5 ng/μl. The absorbance at 450 nm was read using a microplate reader (Tecan GENios). A quantitative calculation formula for m6A is as follows:
m6A (ng)=(absorbance of sample well−absorbance of background well)/slope of standard curve m6A (%)=m6A (ng)/RNA amount of sample (ng)*100%.

[2] = test system: HaCat cells; experiment: m6A methylation level of drug-treated HaCat keratinocytes by nanopore sequencing (Example 14); assay type: cell-based, human; conditions: 50 nM drug, 24 hours
Experimental: 1*10^8 HaCat cells were seeded in culture dishes, into which 50 nM drugs (including sorafenib, capecitabine, docetaxel, and osimertinib) were added, respectively. The cells were cultured in an incubator containing 5% CO2 at 37° C. for 24 hours and washed with PBS after culture media were removed. Centrifugation was performed, the supernatant was discarded, and then, 400 μL of an RLT cell lysis buffer (QIAGEN, Cat. #79216) was added. A portion of samples were selected, into which 400 μL of 70% ethanol was added. The mixture was evenly stirred and then transferred to an RNeasy mini column, and RNA was extracted using an RNeasy mini kit (QIAGEN, Cat. #74104). 2 μL of an RNA sample was selected and dissolved in 98 μL of a 10 mM Tris-HCl buffer solution, and the absorbance at 260 nm was measured using a Nanodrop (Thermo Fisher Scientific) to determine the RNA concentration.
40 μg of an RNA sample was selected for enrichment of mRNA (PolyA+RNA) using an NEBNext Poly(A) mRNA magnetic isolation module (NEB, Cat. #E7490), and then, a 3′ end of the above enriched mRNA (PolyA+RNA) molecule was ligated with reverse transcription adapter RTA using a direct RNA sequencing kit (Oxford Nanopore Technologies, Cat. #SQK-RNA002). A reverse transcription reaction was performed with the mRNA (PolyA+RNA) molecule as a template to synthesize a complementary strand, a terminal end of the reverse transcription adapter RTA was ligated with a sequencing adapter (RNA adapter) to form a final sequencing library, and quantitative detection was performed using a Qubit™ dsDNA HS assay kit (Invitrogen, Cat. #LOT2133187).
After quality inspection of the library, the prepared sequencing library was loaded onto a PromethION flow cell chip (Oxford Nanopore Technologies, Cat. #FLO-MIN106D), and placed in a PromethION sequencer (Oxford Nanopore Technologies) for sequencing by selecting a matched sequencing mode. Basecalling was performed on sequencing data through guppy, and m6A methylation analysis was performed on original fast5 data.

[3] = test system: skin of hind limb toes of mice; experiment: Chemotherapeutic drug-induced mouse models with hand-foot syndrome (Example 23); assay type: in vivo, ICR mice; conditions: for degree of swelling of hind limb toes / epidermal layer and stratum corneum in skin tissues of hind limb toes (pathological staining): modeling drug oral for 14 days; for skin appearance of hind limb toes: modeling for 14 days, capecitabine 200 mg/kg or docetaxel 25 mg/kg oral
Description: After adaptive feeding for 7 days, SPF-grade ICR mice (male, 5-6 weeks old, with a body weight of approximately 35 g) were randomly divided into groups, including a blank control group (6 mice), a capecitabine modeling group (6 mice), a docetaxel modeling group (6 mice), a capecitabine+compound 2b group (6 mice), a docetaxel+compound 2b group (6 mice), a capecitabine+nicotinamide group (6 mice), and a docetaxel+nicotinamide group (6 mice). The groups were respectively administered corresponding modeling drugs by oral gavage (capecitabine at 200 mg/kg and docetaxel at 25 mg/kg) once daily, and the blank control group was administered an equivalent volume of normal saline. After administration with the chemotherapeutic drugs for 2 weeks, the compound ointments (at a compound content of 3%) used in Example 22 were respectively applied topically in the groups, or nicotinamide was orally administered (100 mg/kg) once daily continuously for 16 days.
Measurement of the degree of swelling of toes: The degree of swelling of hind limb toes of the mice was measured using a toe swelling tester (KW-7C, Nanjing Calvin Biotechnology Co., Ltd.) before administration with the modeling drugs, after administration with the modeling drugs for 2 weeks, and before sacrifice, respectively. Before measurement, ankle joints of hind paws of the mice were marked at same positions before administration, after administration for 2 weeks, and before sacrifice. During measurement, water was properly located at the same level as the marked positions, and numerical values were recorded after becoming stable.
Pathological staining of skin tissues: Skin tissue samples were selected from hind limb toes of the mice and placed in 4% paraformaldehyde for fixation at room temperature for 4 hours. Then, the tissues were taken out and rinsed with running water for several hours. The samples were subjected to dehydration treatment with 70%, 80%, and 90% ethanol solutions, followed by treatment with a mixed solution of equal amounts of absolute alcohol and xylene for 15 minutes, and then permeabilized twice with a xylene solution for 15 minutes each time until the samples became transparent. The samples were placed in a mixture of half xylene and half paraffin for soaking for 15 minutes, and then, paraffin I and paraffin II were added for wax penetration for one hour, respectively. After embedding with paraffin, the samples were sectioned, baked, dewaxed, and hydrated. Then, the hydrated sections were placed in a hematoxylin solution (ZSGB-BIO, article No. 23041001) for staining for 3 minutes, and a differentiation solution of hydrochloric acid in ethanol was added for differentiation for 15 seconds. After rinsing with water, a Scott bluing solution (Servicebio, article No. 20230801) was added for bluing for 15 seconds. After rinsing with running water, the sections were stained with an eosin solution (Solarbio, article No. 33535) for 3 minutes, rinsed with running water, dehydrated, permeabilized, sealed, and inspected under a microscope.
Immunohistochemical staining: After baking, dewaxing, and hydration, paraffin sections of skin tissues of hind limb toes of the mice were subjected to antigen retrieval using a 0.2 M citric acid buffer solution (containing 1.534 g of citric acid, 3.1 g of sodium citrate, and 100 mL of distilled water, pH 4.7). Endogenous […] was removed using 3% hydrogen peroxide (Shandong Annjet High-Tech Disinfection Technology Co., Ltd., article No. 20290902), and the sections were incubated at room temperature for 10 minutes and then fully rinsed with a PBS buffer solution (containing 8 g of NaCl, 0.2 g of KCl, 1.44 g of Na2HPO4, and 1 M HCl, pH 7.4). The sections were permeabilized with 0.5% Triron-X-100 (AmyJet Scientific, article No. A-CSH436-100 mL), respectively permeabilized with mouse anti-IL-1β and rabbit IL-8 for 10 minutes, and not permeabilized with rabbit anti-IL-6. […]

[4] = test system: NAP1L2 mRNA in HaCat cells; experiment: NAP1L2 mRNA expression in HaCat cells by RT-PCR (Example 16); assay type: cell-based, human; conditions: HaCat keratinocytes, 24 hours
Experimental: 1*10^8 HaCat cells were seeded in culture dishes, into which a recombinant protein of m6A methylase METTL3 (Abcam, Cat. #ab271611) and a recombinant protein of m6A demethylase FTO (Abcam, Cat. #ab271525) were added, or METTL3 siRNA (sh-METTL3, GeneChem) and FTO siRNA (sh-FTO, GeneChem) were transfected, respectively. The cells were placed in an incubator containing 5% carbon dioxide for culture at 37° C. for 24 hours, washed with PBS, and then collected by high-speed centrifugation. Total RNA was extracted using a Trizol reagent (Sigma Aldrich). 1 μg of RNA was reverse-transcribed into cDNA using a cDNA reverse transcription kit (Transgene Biotech, Cat. #AT311-03). 1.25 μL of a primer (Beyotime, Cat. #QH18721S), 10 μL of an iTag Universal SYBR Green supermix (Bio-Rad, Cat. #172-5125), and an appropriate amount of DEPC ultrapure water were added to formulate 20 μL of a reaction solution to perform an RT-PCR reaction. Upon completion of the reaction, the reaction solution was subjected to agarose gel electrophoresis to determine the mRNA expression amount of NAP1L2.

[5] = test system: MMP2 and MMP9 in HaCat keratinocytes; experiment: Expression of matrix metalloproteinases in HaCat keratinocytes, RT-PCR and Western blot (Example 17); assay type: cell-based, human; conditions: 24 hours
Experimental: 1*10^8 HaCat cells were seeded in culture dishes, into which a human recombinant NAP1L2 protein (Abcam, Cat. #ab117213), sorafenib, capecitabine, docetaxel, and osimertinib were added, or NAP1L2 siRNA (sh-NAP1L2, GeneChem) was transfected, respectively. The cells were placed in an incubator containing 5% carbon dioxide for culture at 37° C. for 24 hours, washed with PBS, and then collected by high-speed centrifugation. An RLT lysis buffer was added to the above collected cells, the mixture was shaken at 4° C. for half an hour and centrifuged to collect the supernatant, and the expression of matrix metalloproteins was measured by Western blot.
Total RNA was extracted from the above collected cells using a Trizol reagent (Sigma Aldrich). 1 μg of RNA was reverse-transcribed into cDNA using a cDNA reverse transcription kit (Transgene Biotech, Cat. #AT311-03). 1.25 μL of a primer (SinoBiological, Cat. #HP100168&HP100367), 10 μL of an iTagUniversal SYBR Green supermix (Bio-Rad, Cat. #172-5125), and an appropriate amount of DEPC ultrapure water were added to formulate 20 μL of a reaction solution to perform an RT-PCR reaction. Upon completion of the reaction, the reaction solution was subjected to agarose gel electrophoresis to determine the mRNA expression amounts of the matrix metalloproteins.

CCCCCOC(=O)Nc1nc(=O)n([C@@H]2O[C@H](C)[C@@H](O)[C@H]2O)cc1F [Capecitabine, capecitabine]
m6A methylation level of human HaCat keratinocytes [1]: significantly increase | fold induction at 0.05 µM [1]: 6.7 | m6A methylation level of HaCat cells, increase compared with blank control group [2]: 6.01 times | cytokine IL-8 in skin tissues of hind limb toes (immunohistochemistry) ([3]; capecitabine oral for 14 days): significantly increased | degree of swelling of hind limb toes [3]: swelling of the hind limb toes of the mice is caused | epidermal layer and stratum corneum in skin tissues of hind limb toes (pathological staining) [3]: significantly thickened | skin appearance of hind limb toes [3]: obvious erythema, rhagades, and blisters

m6A methylase METTL3: recombinant protein of m6A methylase METTL3 (Abcam, Cat. #ab271611)
mRNA expression amount of NAP1L2 [4]: significantly increased

m6A demethylase FTO: recombinant protein of m6A demethylase FTO (Abcam, Cat. #ab271525)
mRNA expression amount of NAP1L2 [4]: significantly decreased

CC(=O)O[C@@]12CO[C@@H]1C[C@H](O)[C@@]1(C)C(=O)[C@H](O)C3=C(C)[C@@H](OC(=O)[C@H](O)[C@@H](NC(=O)OC(C)(C)C)c4ccccc4)C[C@@](O)([C@@H](OC(=O)c4ccccc4)[C@H]21)C3(C)C [Docetaxel, docetaxel]
m6A methylation level of human HaCat keratinocytes [1]: significantly increase | fold induction at 0.05 µM [1]: 5.6 | m6A methylation level of HaCat cells, increase compared with blank control group [2]: 3.97 times | cytokine IL-6 in skin tissues of hind limb toes (immunohistochemistry) ([3]; docetaxel oral for 14 days): significantly increased | degree of swelling of hind limb toes [3]: swelling of the hind limb toes of the mice is caused | epidermal layer and stratum corneum in skin tissues of hind limb toes (pathological staining) [3]: significantly thickened | skin appearance of hind limb toes [3]: obvious erythema, rhagades, and blisters

B1: recombinant NAP1L2 protein: human recombinant NAP1L2 protein (Abcam, Cat. #ab117213) (protein, UniProt Q9ULW6 1-460, looked up)
Nucleosome assembly protein …: MAESENRKELSESSQEEAGNQIMVEGLGEHLERGEDAAAGLGDDGKCGEEAAAGLGEEGENGEDTAAGSGEDGKKGGDTDEDSEADRPKGLIGYVLDTDFVESLPVKVKYRVLALKKLQTRAANLESKFLREFHDIERKFAEMYQPLLEKRRQIINAIYEPTEEECEYKSDSEDCDDEEMCHEEMYGNEEGMVHEYVDEDDGYEDYYYDYAVEEEEEEEEEDDIEATGEENKEEEDPKGIPDFWLTVLKNVDTLTPLIKKYDEPILKLLTDIKVKLSDPGEPLSFTLEFHFKPNEYFKNELLTKTYVLKSKLAYYDPHPYRGTAIEYSTGCEIDWNEGKNVTLKTIKKKQKHRIWGTIRTVTEDFPKDSFFNFFSPHGITSNGRDGNDDFLLGHNLRTYIIPRSVLFFSGDALESQQEGVVREVNDAIYDKIIYDNWMAAIEEVKACCKNLEALVEDIDR
mRNA and protein expression amounts of matrix metalloproteinases MMP2 and MMP9 [5]: significantly increased
